Measured values: article PMC12476894, “Identification of α‑Azacyclic Acetamide-Based Inhibitors of P. falciparum Na^+ Pump (PfATP4) with Fast-Killing Asexual Blood-Stage Antimalarial Activity by Phenotypic Screening” (ACS Infectious Diseases, 2025)
≈ marks a conversion by molar mass, not a printed value. Like-named read-outs stand apart in the source and are kept apart here.

Columns and labels:
[1] = test system: Dd2 PfATP4^F917L mutant clones; assay: 72 h SYBR Green growth inhibition, 2- or 3-selected Dd2 clones with PfATP4 F917L (Phillips Lab); format: cell-based, Plasmodium falciparum; settings: for EC50: Plasmodium falciparum
Description: (§1) To confirm the MOA for the α-azacyclic acetamides against P. falciparum and to obtain potential information about whether or not they bind PfATP4 at an overlapping site with that of KAE609, we undertook resistance selections using PfDd2 parasites using the published cycling drug selection method. , α-Azacyclic acetamides 2 and 3 were chosen as representative examples of the pyrrole- and indole-based series, respectively. […] Additional cycles were performed at 20 × EC50, until resistant parasites were detected based on a fold change in EC50 compared to the parental clonal Dd2 line (Table S3). Resistant parasites were detected in the 2-selections in all 4 flasks after 4 pulses and for 3-selections in 3 flasks after 5 pulses. Clonal lines were generated from each flask, and one clone per flask was selected for WGS and EC50 determination (Tables S4 and S5). WGS analysis identified two single point mutations in PfATP4 that were not present in the original clonal Dd2 parasite line (Tables and S4). P412L was found in three of four flasks containing 2-selected resistance clones, and F917L was identified in all three flasks containing 3-selected clones and in the fourth flask containing 2-selected clones (Table S4). PfATP4 mutations identified by the WGS analysis in parasite lines were verified by PCR of the pfatp4 gene, followed by Sanger sequencing (Figures S5, S6 and Table S6). An additional protein coding gene (ribosomal protein S8e) was mutated in the 2-selections. However, this mutation was identified in only one of four sequenced clones and is therefore unlikely to be related to resistance to 2 (Figure S7). All three resistant clones derived from the 3-selections harbored an identical mutation in a gene (pfcpu) encoding a conserved protein of unknown function, which was absent in the parental line (Figure S8).
(§2) ABS P. falciparum 3D7, Dd2 or PfNF54^luc parasites (BEI resources) were cultured in RPMI 1640 medium (Millipore Sigma), supplemented with 25 mM HEPES, 0.5% Albumax-I (Thermo Scientific), 23 mM sodium bicarbonate, 92 μM hypoxanthine, and 10 μg/mL gentamicin sulfate at 37 °C, 5% CO2, using deidentified O^+ red blood cells (BioIVT) as previously described. − Growth inhibition assays were conducted in 96 well plate format using the SYBR Green or luciferase reporter assay depending on the strain with modifications as described , (see Supporting Information for a detailed description). Details for the luciferase reporter assay are described below under the BRRoK assay section.
(§3) EC50 and CC50 values were determined by nonlinear regression performed in GraphPad Prism Version 10. Unless otherwise specified, data were fitted to the log(inhibitor) vs response–variable slope with four parameters equation. […] For mutant cell lines and compound combinations where bottom plateau of zero growth was not reached, the bottom of the curve was defined at 0% based on background values obtained for parental Dd2 from the same study.
(§4) Resistant Dd2 parasites were selected using a high-pressure intermittent selection protocol using a previously described method. Selections were set up using 4 flasks per compound starting with approximately 3 × 10^9 parasites per flask (80 mL per flask, 4% hematocrit, 3% parasitemia at the beginning of each pulse, mostly ring-stage parasites via previous sorbitol synchronization. Pulse 1 and 2 (48 h) were conducted at 10xEC50, and subsequent pulses were conducted at 20xEC50. Parasites cleared within 48 h under these conditions. 3-Selections used a total of 4 pulses, while 2-selections required 5 pulses before resistant parasites emerged (Table S3). Culture media was replenished daily for a week after each pulse, then every 2 days with weekly replenishment of blood. Cultures were monitored by microscopy until recrudescence. Clonal parasites were obtained from each flask by limiting dilution and maintained in drug free RPMI-1640 media prior to being analyzed for EC50 shifts. […]

[2] = test system: Dd2 PfATP4^P412L mutant clones; assay: 72 h SYBR Green growth inhibition, 2-selected Dd2 clones with PfATP4 P412L (Phillips Lab); format: cell-based, Plasmodium falciparum; settings: for EC50: Plasmodium falciparum
Description: as §1, §2, §3, §4

[3] = test system: isolated Pf3D7 trophozoites, [Na+]cyt; assay: Measurement of P. falciparum cytosolic Na+ concentration (SBFI); format: cell-based, Plasmodium falciparum; settings: 1 μM
Description: Measurements were carried out in 96 well plates (excitation wavelengths: 340 and 380 nm; emission wavelength: 515 nm), as described previously. Fluorescence ratio values (340 nm/380 nm) were converted to [Na^+]cyt using a calibration procedure in which parasites were suspended in solutions of varying [Na^+] containing ionophores.

physchem = settings: kinetic from dmso stock
[4] = test system: P. falciparum NF54^luc parasites; assay: 72 h SYBR Green growth inhibition, PfNF54^luc; format: cell-based; settings: Plasmodium falciparum, 72 h SYBR Green assay, read-out: PfNF54^luc EC50
in vitro = in vitro ADME; settings: human liver microsomes, 1 µM compound, 0.4 mg/mL protein
[5] = test system: P. falciparum NF54^luc parasites; assay: Luciferase reporter (LR) / BRRoK assay, PfNF54^luc; format: cell-based, Plasmodium falciparum; settings: Plasmodium falciparum, NF54, Hec50; luciferase reporter, 6 h
[6] = test system: P. falciparum 3D7 parasites (Pf3D7); assay: 72 h SYBR Green growth inhibition, ABS P. falciparum 3D7 (Phillips Lab); format: cell-based, Plasmodium falciparum; settings: Plasmodium falciparum, 3D7; 72 h SYBR Green assay; mean ± SEM (n)
[7] = test system: Pf3D7 trophozoites, pHcyt (PfATP4 and other plasma membrane transporters); assay: P. falciparum pH fingerprint assay; settings: 5 μM, compared with KAE609 50 nM
Dd2^L350H (PfATP4^L350H) = assay: Drug susceptibility assay for cross-resistance profiling (Fidock Lab), L350H; format: cell-based, Plasmodium falciparum; settings: Table 3 data set; for EC50: Plasmodium falciparum, DD2, 15-selected line
PfD10 attB + yDHODH = assay: 72 h SYBR Green growth inhibition, strain expressing yeast DHODH; format: cell-based; settings: Plasmodium falciparum, read-out: PfD10 attB + yDHODH EC50, 72 h SYBR Green assay
[8] = Human HepG2 cytotoxicity assay (CellTiter Glo); format: cell-based; settings: HepG2 cells
[9] = test system: Pf3D7 trophozoite-stage parasites, cytosolic pH (pHcyt); cell-based assay for ATP4 inhibition; assay: P. falciparum cytosolic dose response pH assay (BCECF, with concanamycin A); settings: Plasmodium falciparum, read-out: Pf3D7 pH EC50
[10] = test system: P. falciparum Dd2 (PfDd2) parasites; assay: 72 h SYBR Green growth inhibition, ABS P. falciparum Dd2 (Phillips Lab); format: cell-based, Plasmodium falciparum; settings: Plasmodium falciparum
[11] = DD2, read-out: EC50, 2-resistant Flask 1 Clone B6
[12] = DD2, read-out: EC50, 3-resistant Flask 2 Clone D10
[13] = DD2, read-out: EC50, 3-resistant Flask 3 Clone D8
[14] = DD2, read-out: EC50, 3-resistant Flask 4 Clone B3
[15] = DD2, read-out: EC50, 3-selected flask #3 clone D8
[16] = DD2, read-out: EC50, 2-resistant Flask 2 Clone F9
[17] = DD2, read-out: EC50, 2-resistant Flask 3 Clone F5
[18] = DD2, read-out: EC50, 2-resistant Flask 4 Clone E10
[19] = DD2, read-out: EC50, 2-selected flask #3 clone F5
[20] = DD2, 72 h, read-out: PfDd2 EC50

With `Cc1ccnc(NC(=O)Cn2cccc2-c2nc(-c3ccccc3)cs2)c1` [compound 2, N-(4-methylpyridin-2-yl)-2-(2-(4-phenylthiazol-2-yl)-1H-pyrrol-1-yl)acetamide] the EC50 [1, 11] was 9600 ± 2000 nM, the EC50 [1, 12] was > 10000 nM and the EC50 [1, 13] was > 10000 nM. The EC50 [1, 14] was > 10000 nM, the EC50 [1, 15] was 14000 ± 780 nM and the “Fold EC50 change compared to WT Dd2, 3-selected flask #3 clone D8” value [1] was 17 fold. The EC50 [2, 16] was > 10000 nM, the EC50 [2, 17] was > 10000 nM and the EC50 [2, 18] was > 10000 nM. The EC50 [2, 19] was 29000 ± 6100 nM, the “Fold EC50 change compared to WT Dd2, 2-selected flask #3 clone F5” value [2] was 35 fold and the “increase in [Na+]cyt (in words)” value [3] was “reduced response”. It also gave a solubility (physchem; pH 2, simulated gastric fluid) of 99 µM (≈ 37.1 µg/mL), a solubility (physchem; pH 6.5, aqueous buffer) of 3.2 µM (≈ 1.2 µg/mL) and an EC50 [4] of 720 ± 19 nM. For the same compound, the microsomal CLint (in vitro) was > 866 µL/min/mg, the EC50 [5] was 1100 ± 90 nM and the EC50 [6] was 830 ± 71 nM. The “pH fingerprint, +Glucose + CMA condition (in words)” value [7] was “maximal/near-maximal inhibition of PfATP4”, the EC50 (Dd2^L350H (PfATP4^L350H)) was 1600 ± 160 nM and the “EC50 fold-change vs Dd2-B2, Dd2^L350H” value (Dd2^L350H (PfATP4^L350H)) was 4.2 fold. The EC50 (PfD10 attB + yDHODH) was 990 nM, the CC50 at 96 h [8] was > 50000 nM and the EC50 [9] was 1600 ± 950 nM. It also gave an EC50 [10, 20] of 830 ± 48 nM and an EC50 ([10]; DD2, read-out: EC50, Dd2 Parent (clone B8)) of 780 nM.
For `Cc1nn(CCNC(=O)Cn2c(C)c(C#N)c3ccccc32)c(C)c1Cl` [compound 3, N-(2-(4-chloro-3,5-dimethyl-1H-pyrazol-1-yl)ethyl)-2-(3-cyano-2-methyl-1H-indol-1-yl)acetamide], the EC50 [1, 11] was > 10000 nM, the EC50 [1, 12] was > 10000 nM and the EC50 [1, 13] was > 10000 nM. The EC50 [1, 14] was > 10000 nM, the EC50 [1, 15] was 28000 ± 1600 nM and the “Fold EC50 change compared to WT Dd2, 3-selected flask #3 clone D8” value [1] was 25 fold. For the same compound, the EC50 [2, 16] was > 10000 nM, the EC50 [2, 17] was > 10000 nM and the EC50 [2, 18] was > 10000 nM. For the same compound, the EC50 [2, 19] was 11000 ± 1800 nM, the “Fold EC50 change compared to WT Dd2, 2-selected flask #3 clone F5” value [2] was 10 fold and the “increase in [Na+]cyt (in words)” value [3] was “reduced response”. The solubility (physchem; pH 2, simulated gastric fluid) was 25 µM (≈ 9.25 µg/mL), the solubility (physchem; pH 6.5, aqueous buffer) was 25 µM (≈ 9.25 µg/mL) and the EC50 [4] was 940 ± 2.7 nM. For the same compound, the microsomal CLint (in vitro) was > 866 µL/min/mg, the EC50 [5] was 1600 ± 71 nM and the EC50 [6] was 1100 ± 71 nM. For the same compound, the “pH fingerprint, +Glucose + CMA condition (in words)” value [7] was “submaximal inhibition”, the EC50 (Dd2^L350H (PfATP4^L350H)) was 3400 ± 320 nM and the “EC50 fold-change vs Dd2-B2, Dd2^L350H” value (Dd2^L350H (PfATP4^L350H)) was 6.3 fold. For the same compound, the EC50 (PfD10 attB + yDHODH) was 930 nM, the CC50 at 96 h [8] was > 50000 nM and the EC50 [9] was 1500 ± 47 nM. For the same compound, the EC50 [10, 20] was 1100 ± 72 nM and the EC50 ([10]; DD2, read-out: EC50, Dd2 Parent (clone G9)) was 990 nM.
